Tests used:
BRAF = BRAF (Homo sapiens, UniProt P15056); test: in vitro kinase assay, percent control and binding affinity
[1] = system: BAK melanoma cells xenografted into athymic mice; test: mouse xenografting, tumor growth; assay type: in vivo; details: gavage; for tumor growth (in words): trametinib 0.1 or 3 mg/kg/qd, alone or combined
Protocol: All animal experiments were performed in accordance with the guidelines and approval of Georgetown University Animal Care and Use Committee. Athymic 6-week old male mice (Taconic) were acclimated to the Division of Comparative Medicine at Georgetown University a week prior to xenografting. 3×10^6 melanoma cells were resuspended in Matrigel and injected subcutaneously into the hind flanks of athymic mice using a 22-gauge needle. […] Drugs were administered by oral gavage. Each testing group contained three to five mice in each of four experiments. Each tumor from each treatment group was measured on indicated days, and all tumor sizes were then normalized to their size at day 0 of drug treatment. All data from all four experiments was then combined for statistical analysis, to compare every mouse from each treatment group. […] The results were expressed as the mean (±SD) of tumor volume in each group. After five weeks, mice were euthanized; tumors extracts were derived for immunoblot analysis. […] This yields a similar constant to that calculated by Mosteller for humans: BSA (m^2) = [[…] (kg)]*60 [36]. […] For high dose trametinib, this is equivalent to 14.4 mg/person/day. […] By comparison, patient doses range from 100 mg one time (pinworms) to 200 mg/kg per day for 12 weeks ([…] disease in children) including doses up to 6 g per day. […] The results shown are based on a single experiment in triplicate, and repeated in three independent experiments with essentially the same results. […] For tumor sizes, the rate-based T/C (tumor/control) test of significance was used as described, using the author's template. The results are representative of 3 independent experiments with reproducible results. For determining synergism, the combination index (τ) was calculated from single dose-response curves and combination experiments as τ = xA/XA+xB/XB, in which, for a given cytotoxic effect, xA and xB are the concentrations of drugs A and B in the combination, and XA and XB are the concentrations of drugs A and B that achieve the same cytotoxic effect when given alone.

pMEK1/2 S217/221 = test: immunoblot analysis of BAK cells; assay type: cell-based, human; details: 100 nM, combination within 30 min
Protocol: (§1) SDS-PAGE and transfer of separated proteins to nitrocellulose membranes were performed according to standard procedures. Membranes were stained with Ponceau S (0.1%) to verify equal loading and transfer of proteins, and then incubated with antibodies specific for pERK1/2 T202/Y204, pMEK1/2 S217/221, pBAD S-112, total BAD, total ERK1/2, total MEK1/2, BCL2 (Santa Cruz Biotech), BCLXL (Santa Cruz Biotech), cleaved PARP (Cell Signaling), or GAPDH (Abcam; loading control). Immune complexes were detected by incubation with appropriate horseradish peroxidase-conjugated antibodies to mouse or rabbit IgG (1:3000) and enhanced chemiluminescence (Pierce, Rockford, IL).

[2] = system: phosphorylation of ERK1/2 (T202/Y204); test: immunoblot analysis of BAK cells; assay type: cell-based, human; details: 100 nM, combination undetectable by 30 min
Protocol: as §1

MEK2 = MEK2 (Homo sapiens, UniProt P36507); test: in vitro kinase assay, percent control; assay type: binding; details: Kinase Target MEK2
Chain of MEK2 (P36507 whole entry): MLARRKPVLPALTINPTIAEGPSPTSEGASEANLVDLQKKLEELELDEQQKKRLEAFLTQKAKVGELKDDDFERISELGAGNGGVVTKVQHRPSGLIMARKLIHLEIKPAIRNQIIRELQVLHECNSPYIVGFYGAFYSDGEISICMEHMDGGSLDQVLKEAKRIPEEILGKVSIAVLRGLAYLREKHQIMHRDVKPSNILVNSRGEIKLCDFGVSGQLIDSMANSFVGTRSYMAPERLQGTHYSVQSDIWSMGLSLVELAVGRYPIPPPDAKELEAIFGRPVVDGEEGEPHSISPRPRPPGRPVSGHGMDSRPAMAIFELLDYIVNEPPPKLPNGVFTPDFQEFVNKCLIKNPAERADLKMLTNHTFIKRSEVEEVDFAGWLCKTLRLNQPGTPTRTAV

human tubulin = biological target: human tubulin; design: method as in PMID 7388055; details: much lower than for parasite tubulin; cited from earlier work
C-RAF = C-RAF (Homo sapiens, UniProt P04049); test: in vitro kinase assay, percent control; assay type: binding; details: Kinase Target C-RAF
Chain of C-RAF (P04049 whole entry): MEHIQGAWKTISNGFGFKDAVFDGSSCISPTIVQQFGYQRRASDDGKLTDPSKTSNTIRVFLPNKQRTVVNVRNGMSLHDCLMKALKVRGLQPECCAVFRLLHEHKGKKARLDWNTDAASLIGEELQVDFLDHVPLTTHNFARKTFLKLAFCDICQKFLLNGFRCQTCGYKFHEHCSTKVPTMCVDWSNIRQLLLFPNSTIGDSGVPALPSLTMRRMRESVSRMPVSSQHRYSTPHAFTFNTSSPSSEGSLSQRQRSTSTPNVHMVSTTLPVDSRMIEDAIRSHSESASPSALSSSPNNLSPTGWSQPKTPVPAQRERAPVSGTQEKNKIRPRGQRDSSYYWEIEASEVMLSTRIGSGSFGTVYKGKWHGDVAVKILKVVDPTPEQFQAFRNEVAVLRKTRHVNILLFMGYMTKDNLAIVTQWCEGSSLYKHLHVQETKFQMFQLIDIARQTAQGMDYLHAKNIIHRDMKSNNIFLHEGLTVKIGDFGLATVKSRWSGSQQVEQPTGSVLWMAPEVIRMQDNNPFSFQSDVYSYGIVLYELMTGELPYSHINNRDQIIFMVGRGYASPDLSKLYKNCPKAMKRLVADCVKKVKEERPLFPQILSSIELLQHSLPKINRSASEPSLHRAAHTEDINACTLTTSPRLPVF

PDGFRB = system: PDGFRB; design: method as in PMID 26234515, PMID 22780961, PMID 24135855; details: cited from earlier work
VEGFR-2 = system: VEGFR-2; design: method as in PMID 26234515, PMID 22780961, PMID 24135855; details: cited from earlier work
roundworm tubulin = biological target: roundworm tubulin; design: method as in PMID 7388055; details: nematode and cestode parasite tubulin; read-out: apparent binding affinity for tubulin; cited from earlier work
PDGFRA = system: PDGFRA; design: method as in PMID 26234515, PMID 22780961, PMID 24135855; details: cited from earlier work
[3] = design: method as in PMID 7094986; details: chronic oral MBZ 10 mg/kg/day, cited from earlier work
[4] = system: MEK1/2 and ERK1/2 phosphorylation; test: immunoblot analysis of tumor xenograft extracts; assay type: in vivo, mice; details: tumors collected at termination; combination = HDT+MBZ
Protocol: All animal experiments were performed in accordance with the guidelines and approval of Georgetown University Animal Care and Use Committee. Athymic 6-week old male mice (Taconic) were acclimated to the Division of Comparative Medicine at Georgetown University a week prior to xenografting. 3×10^6 melanoma cells were resuspended in Matrigel and injected subcutaneously into the hind flanks of athymic mice using a 22-gauge needle. […] Drugs were administered by oral gavage. Each testing group contained three to five mice in each of four experiments. Each tumor from each treatment group was measured on indicated days, and all tumor sizes were then normalized to their size at day 0 of drug treatment. All data from all four experiments was then combined for statistical analysis, to compare every mouse from each treatment group. […] The results were expressed as the mean (±SD) of tumor volume in each group. After five weeks, mice were euthanized; tumors extracts were derived for immunoblot analysis. SDS-PAGE and transfer of separated proteins to nitrocellulose membranes were performed according to standard procedures. […] Immune complexes were detected by incubation with appropriate horseradish peroxidase-conjugated antibodies to mouse or rabbit IgG (1:3000) and enhanced chemiluminescence (Pierce, Rockford, IL).

VEGFR2 = VEGFR2 (Homo sapiens, UniProt P35968); test: in vitro kinase assay, percent control and binding affinity; details: Kinase Target VEGFR2
Chain of VEGFR2 (P35968 20-1356): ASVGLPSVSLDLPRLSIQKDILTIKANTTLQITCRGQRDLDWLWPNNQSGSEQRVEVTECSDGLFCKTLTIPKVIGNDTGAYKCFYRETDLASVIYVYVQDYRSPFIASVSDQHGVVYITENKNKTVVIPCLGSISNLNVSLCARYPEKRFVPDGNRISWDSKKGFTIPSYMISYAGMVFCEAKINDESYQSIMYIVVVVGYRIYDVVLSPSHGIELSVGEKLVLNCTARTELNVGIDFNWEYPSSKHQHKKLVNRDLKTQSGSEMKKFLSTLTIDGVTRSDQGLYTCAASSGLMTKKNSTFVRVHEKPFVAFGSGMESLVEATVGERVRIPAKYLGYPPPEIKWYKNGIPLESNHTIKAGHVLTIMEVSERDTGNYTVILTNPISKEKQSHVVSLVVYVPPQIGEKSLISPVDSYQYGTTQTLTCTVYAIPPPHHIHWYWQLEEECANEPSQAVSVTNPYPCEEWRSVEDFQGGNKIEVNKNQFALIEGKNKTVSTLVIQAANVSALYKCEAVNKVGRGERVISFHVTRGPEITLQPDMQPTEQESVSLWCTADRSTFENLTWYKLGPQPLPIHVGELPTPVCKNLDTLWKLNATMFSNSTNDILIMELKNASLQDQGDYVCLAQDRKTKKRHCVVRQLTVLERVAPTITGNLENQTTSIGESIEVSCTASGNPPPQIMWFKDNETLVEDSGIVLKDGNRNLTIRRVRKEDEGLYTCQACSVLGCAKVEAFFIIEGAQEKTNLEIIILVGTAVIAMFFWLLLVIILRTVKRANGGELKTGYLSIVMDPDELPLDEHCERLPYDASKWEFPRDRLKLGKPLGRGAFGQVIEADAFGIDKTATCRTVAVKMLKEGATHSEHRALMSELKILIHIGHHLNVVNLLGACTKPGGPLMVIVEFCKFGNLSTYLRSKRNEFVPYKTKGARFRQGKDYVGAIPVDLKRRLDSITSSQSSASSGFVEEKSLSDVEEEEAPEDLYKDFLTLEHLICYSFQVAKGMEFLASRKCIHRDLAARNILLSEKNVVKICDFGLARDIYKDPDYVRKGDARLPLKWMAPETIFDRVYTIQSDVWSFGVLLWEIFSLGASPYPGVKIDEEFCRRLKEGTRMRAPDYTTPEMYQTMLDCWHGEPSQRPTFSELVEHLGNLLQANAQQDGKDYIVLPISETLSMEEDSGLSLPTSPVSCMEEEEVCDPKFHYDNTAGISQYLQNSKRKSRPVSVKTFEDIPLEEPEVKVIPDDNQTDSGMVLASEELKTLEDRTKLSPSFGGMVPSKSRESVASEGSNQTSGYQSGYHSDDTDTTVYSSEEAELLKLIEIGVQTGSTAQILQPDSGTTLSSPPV

MEK1 = MEK1 (Homo sapiens, UniProt Q02750); test: in vitro kinase assay, percent control; assay type: binding; details: Kinase Target MEK1
Chain of MEK1 (Q02750 whole entry): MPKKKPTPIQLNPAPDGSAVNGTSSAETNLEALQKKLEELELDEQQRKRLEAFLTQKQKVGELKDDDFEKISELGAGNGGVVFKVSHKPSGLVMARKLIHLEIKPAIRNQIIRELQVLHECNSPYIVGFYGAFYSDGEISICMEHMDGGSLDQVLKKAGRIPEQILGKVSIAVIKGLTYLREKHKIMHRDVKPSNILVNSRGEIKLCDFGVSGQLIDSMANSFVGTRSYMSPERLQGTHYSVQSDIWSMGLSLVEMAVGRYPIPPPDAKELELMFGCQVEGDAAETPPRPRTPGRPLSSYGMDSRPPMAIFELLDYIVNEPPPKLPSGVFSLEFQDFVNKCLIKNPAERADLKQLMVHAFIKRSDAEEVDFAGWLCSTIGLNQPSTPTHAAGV

BRAF (V600E) = BRAF (V600E) (Homo sapiens, UniProt P15056, V600E); test: in vitro kinase assay, percent control and binding affinity; details: Kinase Target BRAF (V600E)
Chain of BRAF (V600E) (P15056 whole entry V600E): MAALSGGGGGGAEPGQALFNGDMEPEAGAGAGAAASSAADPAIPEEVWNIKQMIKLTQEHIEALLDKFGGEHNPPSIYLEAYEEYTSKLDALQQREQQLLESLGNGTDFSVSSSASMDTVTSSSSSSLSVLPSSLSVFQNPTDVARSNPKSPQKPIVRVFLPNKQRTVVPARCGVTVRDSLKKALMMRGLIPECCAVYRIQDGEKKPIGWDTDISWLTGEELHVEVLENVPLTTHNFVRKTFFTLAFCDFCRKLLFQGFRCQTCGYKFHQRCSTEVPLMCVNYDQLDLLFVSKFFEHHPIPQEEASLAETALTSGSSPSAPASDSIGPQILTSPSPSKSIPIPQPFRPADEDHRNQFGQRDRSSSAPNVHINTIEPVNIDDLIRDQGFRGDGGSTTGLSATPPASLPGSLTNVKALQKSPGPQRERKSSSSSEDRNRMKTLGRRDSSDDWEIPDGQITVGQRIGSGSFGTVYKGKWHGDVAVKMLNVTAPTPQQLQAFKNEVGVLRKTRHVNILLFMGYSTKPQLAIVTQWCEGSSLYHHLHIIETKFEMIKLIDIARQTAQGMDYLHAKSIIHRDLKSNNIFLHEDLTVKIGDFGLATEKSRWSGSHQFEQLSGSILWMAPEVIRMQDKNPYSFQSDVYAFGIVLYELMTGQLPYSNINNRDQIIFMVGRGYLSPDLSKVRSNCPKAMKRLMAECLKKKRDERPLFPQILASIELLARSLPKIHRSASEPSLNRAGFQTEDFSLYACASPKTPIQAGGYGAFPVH

[5] = system: BAK, BUL and STU melanoma cells; test: XTT cell viability assay, statements for all three lines; assay type: cell-based, human; details: 72 h; for concentration at which significant growth inhibition was observed: 2-way ANOVA; for cytotoxic activity as single agent (in words): all three cell lines
Protocol: MBZ, dabrafenib, and trametinib were purchased from Sigma-Aldrich and ActiveBiochem, respectively. 5 × 10^3 viable cells per well were plated in 96-well dishes and allowed to recover for 12 h prior to drug treatment. Cells in triplicate wells were treated for up to 72 h (based on initial time course experiments showing maximal effects at that time point) with different concentrations of trametinib, dabrafenib, or MBZ alone, or a combination of MBZ and trametinib. Negative controls were exposed to vehicle DMSO in the same volumes. Cell viability was assessed by an XTT assay, according to a manufacturer's specifications (Biotium Inc). Reduced XTT was measured by absorbance at 490 nm on a PerkinElmer Victor3 plate reader. Cells exposed to detergent served as a positive control.
The results shown are based on a single experiment in triplicate, and repeated in three independent experiments with essentially the same results. Data from triplicates of treatment groups were compared using Student's t-test or 2-way ANOVA (multiple comparisons) for significance, and p values of < 0.05 were considered statistically significant. For tumor sizes, the rate-based T/C (tumor/control) test of significance was used as described, using the author's template. The results are representative of 3 independent experiments with reproducible results. For determining synergism, the combination index (τ) was calculated from single dose-response curves and combination experiments as τ = xA/XA+xB/XB, in which, for a given cytotoxic effect, xA and xB are the concentrations of drugs A and B in the combination, and XA and XB are the concentrations of drugs A and B that achieve the same cytotoxic effect when given alone. A τ value of 1 indicates additivity, τ less than 1 indicates synergy, and τ greater than 1 indicates antagonism.

[6] = system: BAK and BUL melanoma cells; test: apoptosis (fluorometric caspase-3 activity, sub-G1) and cell cycle assays; assay type: cell-based, human; details: 100 nM, all time points
Source text: Cells were collected, fixed in ethanol, stained with propidium iodide (PI) to determine DNA content, and analyzed by flow cytometry (FACStar PLus; BD BioSciences, San Jose, CA).
Cytosolic extracts, derived from pooled floating and attached cells, were subjected to fluorometric caspase-3 activity assays using fluorescent tetrapeptide substrate specific for caspases-3 (Ac-DEVD-aminomethylcoumarin (AMC, Enzo Life Sciences, Ann Arbor, MI) as previously described. Free AMC, generated as a result of cleavage of the aspartate-AMC bond, was monitored over 30 min with a Wallac Victor^3 fluorometer (Perkin-Elmer, Waltham, MA) at excitation and emission wavelengths of 360 and 460 nm, respectively. The emission from each sample was plotted against time, and linear regression analysis of the initial velocity (slope) for each curve yielded the activity.

Chain of BRAF (P15056 whole entry): as the sequence (P15056 whole entry V600E) above, with E600V counted along it

COC(=O)Nc1nc2ccc(C(=O)c3ccccc3)cc2[nH]1 [MBZ, methyl N-[6-(benzoyl)-1H-benzimidazol-2-yl] carbamate]
remaining activity at 10 µM (BRAF; 10 μM, Kinase Target BRAF): 7.8% | Kd (BRAF; Kinase Target BRAF (BRAF^WT)): 230 nM | Rate-based T/C ([1]; MBZ vs Vehicle, MBZ 40 mg/kg/qad): 1.04 | tumor growth (in words) ([1]; MBZ 40 mg/kg/qad): did not work as a monotherapy | pMEK1/2 S217/221 activating phosphorylation (in words) (pMEK1/2 S217/221): not inhibited | activating phosphorylation of ERK1/2 (T202/Y204) (in words) [2]: diminished | remaining activity at 10 µM (MEK2): 12% | affinity for human tubulin (human tubulin): µM range | remaining activity at 10 µM (C-RAF): 23% | concentration at which MBZ inhibits PDGFRB (PDGFRB): 660 nM | concentration at which MBZ inhibits VEGFR-2 (VEGFR-2): 3.6 µM | Kd (roundworm tubulin): 19 nM | concentration at which MBZ inhibits PDGFRA (PDGFRA): 820 nM | peak plasma level, variability between patients [3]: 0.34 to 1.69 µM | mean peak plasma level ([3]; patients): 470 nM | MEK1/2 and ERK1/2 phosphorylation in tumors (in words) [4]: ability to suppress | remaining activity at 10 µM (VEGFR2): 20% | remaining activity at 10 µM (MEK1): 16% | remaining activity at 10 µM (BRAF (V600E); 10 μM): 3.2% | Kd (BRAF (V600E)): 210 nM | concentration at which significant growth inhibition was observed [5]: ≥ 10 nM | cytotoxic activity as single agent (in words) [5]: weak cytotoxic activity

CC(C)(C)c1nc(-c2cccc(NS(=O)(=O)c3c(F)cccc3F)c2F)c(-c2ccnc(N)n2)s1 [dabrafenib]
concentration at which significant growth inhibition was observed [5]: ≥ 1000 nM | cytotoxic activity as single agent (in words) [5]: resistance to dabrafenib except at the highest doses tested

CC(=O)Nc1cccc(-n2c(=O)n(C3CC3)c(=O)c3c(Nc4ccc(I)cc4F)n(C)c(=O)c(C)c32)c1 [trametinib]
Rate-based T/C ([1]; HDT vs Vehicle, high dose trametinib 3 mg/kg/qd): 0.73 | Rate-based T/C ([1]; LDT vs Vehicle, low dose trametinib 0.1 mg/kg/qd): 0.93 | tumor growth (in words) ([1]; MBZ 40 mg/kg/qad): did not show any significant tumor-suppressive effects | pMEK1/2 S217/221 activating phosphorylation (in words) (pMEK1/2 S217/221): not inhibited | activating phosphorylation of ERK1/2 (T202/Y204) (in words) [2]: diminished | percentage of cells in S phase (in words) [6]: decreased | MEK1/2 and ERK1/2 phosphorylation in tumors (in words) [4]: ability to suppress | concentration at which significant growth inhibition was observed [5]: ≥ 1 nM

Source: paper PMC5355037, “The repurposed anthelmintic mebendazole in combination with trametinib suppresses refractory NRAS^Q61K melanoma” (Oncotarget, 2017)
